molecular target: TNFα trimer (Homo sapiens, UniProt P01375); assay: TNFα FP Competitive Binding Assay; conditions: FP binding assay; 20 nM TNFα trimer, 1 nM OregonGreen488 probe; read-out: TNF IC50
Method: TNFα FP Competitive Binding Assay
• 1. Assay Buffer: Prepare 1× Assay Buffer (Water with 47 mM HEPES, 47 mM NaCl, 0.9 mM EDTA, 0.0071% Triton X-100) by adding 25 mL of 1 M HEPES, 5 mL of 5 M NaCl, 1 mL of 0.5 M EDTA, and 375 μL of a 10% Triton X-100 stock to a fresh 500 mL bottle of water. • 2. Assay Mixture: Prepare fresh Assay Mixture containing 20 nM TNFα trimer (60 nM protein) and 1 nM 2′,7′-difluoro-3′,6′-dihydroxy-N-(2-(2-(2-((4-(isoquinolin-8-yl)-3-(4-(isoquinolin-8-yl)phenethoxy)benzyl)oxy)ethoxy)ethoxy)ethyl)-3-oxo-3H-spiro[isobenzofuran-1,9′-xanthene]-5-carboxamide probe in 1× Assay Buffer. Compound Plate Preparation Manual 12-Point 1:3 Dilution Plates: (384 Well Polypropylene Plates)
Top concentration of compounds, 10 mM in DMSO, dispensed in rows A-O in columns 1 and 13. Compounds are serially diluted 1:3 with DMSO in columns 2-12 or 14-24 using a 16-channel Matrix pipettor. Plates stored at −20° C.
Discovery Preps 12-Point 1:3 Dilution Plates: (384 Well Assay Plates)
Top concentration, 5 mM in DMSO, of compounds placed in rows A-O in columns 1 and 13. Compounds are serially diluted 1:3 with DMSO in columns 2-12 or 14-24. Compound solutions are dispensed into replicate assay plates at 410 nL per well. Plates stored at 4° C.
TNFα FP Competitive Binding Assay Protocol
• 1. Compound plates warmed to rt. • 2. Fresh Assay Mixture is prepared. • 3. Assay Mixture (20 μL) is dispensed each well of 384 assay plates using a Thermo Multidrop Combi or 16-channel Matrix pipettor. If Manual 12-point 1:3 Dilution Plates are to be tested, Assay Mix is dispensed into empty plates. Discovery Preps 12-point 1:3 Dilution Plates already contain 410 nL compound solution in DMSO. • 4. For Manual 12-point 1:3 Dilution Plates, 0.7 μL is manually transferred using a 16-channel Matrix pipettor to replicate assay plates containing 20 μL Assay Mixture for a final top compound concentration of 338 μM (3.4% DMSO). • 5. For Discovery Preps 12-point 1:3 Dilution Plates, 20 μL Assay Mixture added the 410 nL compound solution already in the plates yields a final top compound concentration of 100 μM (2.0% DMSO). • 6. Background subtraction controls are wells P1-P8 containing only Assay Buffer. The low % inhibition controls are wells P9-P16 containing only Assay Mix. The high % inhibition are wells P17-P24 containing only 1 nM 2′,7′-difluoro-3′,6′-dihydroxy-N-(2-(2-(2-((4-(isoquinolin-8-yl)-3-(4-(isoquinolin-8-yl)phenethoxy)benzyl)oxy)ethoxy)ethoxy)ethyl)-3-oxo-3H-spiro[isobenzofuran-1,9′-xanthene]-5-carboxamide probe in 1× Assay Buffer. • 7. Plates are incubated at rt for 18-24 h in 37° C. incubator (CO2 is off). • 8. Prior to reading the assay, the plates are placed in a dark cabinet to equilibrate at rt for one hour. • 9. Background-subtracted fluorescence polarization (mP) is measured using a PerkinElmer Envision plate reader. • 10. Raw data is entered into Assay Explorer and dose-response curves are generated using a variable slope curve. Supplies, Materials, and Reagents

TNFα trimer, sequence (P01375 77-233 limits assumed): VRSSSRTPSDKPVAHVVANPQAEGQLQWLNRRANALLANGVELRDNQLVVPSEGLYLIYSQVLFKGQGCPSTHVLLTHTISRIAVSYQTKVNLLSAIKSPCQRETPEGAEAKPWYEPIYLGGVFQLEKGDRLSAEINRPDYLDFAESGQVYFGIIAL

Compound | IC50 [nM]
Cn1c(=O)c2ccc(-c3cnc(C(C)(C)O)nc3)cc2n1Cc1ccccc1OC(F)F [Example 10.1] | 1000 to 10000
Cn1c(=O)c2ccc(-c3cnc(N4CCOCC4)cn3)cc2n1Cc1ccccc1OC(F)F [Example 10.2] | 1000 to 10000
Cn1c(=O)c2ccc(-c3cnc(N4CCC(C(=O)O)CC4)cn3)cc2n1Cc1ccccc1OC(F)F [Example 10.3] | > 10000
CC(Nc1ncc(-c2ccc3c(=O)n(C)n(Cc4ccccc4OC(F)F)c3c2)cn1)C(N)=O (centres unmarked) [Example 10.4] | 1000 to 10000
Cn1c(=O)c2ccc(-c3nsc(N4CCOCC4)n3)cc2n1Cc1ccccc1OC(F)F [Example 10.5] | > 10000
CC(=O)N1CCC(Oc2cc(-c3ccc4c(=O)n(C)n(Cc5ccccc5OC(F)F)c4c3)ccn2)CC1 [Example 10.12] | 1000 to 10000
Cn1c(=O)c2ccc(-c3ccnc(OC4CCCOC4)c3)cc2n1Cc1ccccc1OC(F)F (centres unmarked) [Example 10.13] | 1000 to 10000
CN(C)c1ncc(-c2ccc3c(=O)n(C)n(Cc4ccccc4OC(F)F)c3c2)cn1 [Example 10.15] | 1000 to 10000
O=c1c2ccc(-c3cnc(N4CCOCC4)nc3)cc2n(Cc2ccccc2OC(F)F)n1C1CC1 [Example 11, 2-Cyclopropyl-1-(2-(difluoromethoxy)benzyl)-6-(2-morpholinopyrimidin-5-yl)-1H-indazol-3(2H)-one] | 1000 to 10000
Cn1c(=O)c2ccc(-c3ccnc(N4CCOCC4)c3)cc2n1Cc1cccc(F)c1 [Example 11.1] | > 10000
Cn1c(=O)c2ccc(-c3cnn(C4CCOCC4)c3)cc2n1Cc1cccc(F)c1 [Example 11.2] | > 10000
Cn1c(=O)c2ccc(-c3cnc(CC4(C)COC4)nc3)cc2n1Cc1ccccc1OC(F)F [Example 12, 1-(2-(Difluoromethoxy)benzyl)-2-methyl-6-(2-((3-methyloxetan-3-yl)methyl)pyrimidin-5-yl)-1H-indazol-3(2H)-one] | 1000 to 10000
Cn1c(=O)c2ccc(-c3cnc(N4CCOCC4)nc3)cc2n1-c1cc(Cl)ccc1Cl [Example 12.1] | 1000 to 10000
Cn1c(=O)c2ccc(-c3nc(N4CCOCC4)no3)cc2n1Cc1ccccc1OC(F)F [Example 13, 1-(2-(Difluoromethoxy)benzyl)-2-methyl-6-(3-morpholino-1,2,4-oxadiazol-5-yl)-1H-indazol-3(2H)-one] | 1000 to 10000
Cc1cc2c(=O)n(C)n(Cc3ccccc3OC(F)F)c2cc1-c1cnc(N2CCNC(=O)C2)nc1 [Example 13.2] | 1000 to 10000
Cc1cc2c(=O)n(C)n(Cc3ccccc3OC(F)F)c2cc1-c1cnc(N2CCC(C(=O)O)CC2)nc1 [Example 13.3] | 1000 to 10000
Cn1c(=O)c2ncc(-c3cnc(N4CCOCC4)nc3)cc2n1Cc1ccccc1OC(F)F [Example 14, 1-(2-(Difluoromethoxy)benzyl)-2-methyl-6-(2-morpholinopyrimidin-5-yl)-1H-pyrazolo[4,3-b]pyridin-3(2H)-one] | > 10000
Cn1c(=O)c2ccc(-c3ccc(N4CCNCC4)nc3)cc2n1Cc1ccccc1OC(F)F [Example 14.1] | 1000 to 10000
Cn1c(=O)c2ccc(-c3cnc(N4CCNCC4)nc3)cc2n1Cc1cc(Cl)ccc1Cl [Example 14.2] | 1000 to 10000
Cn1c(=O)c2ccc(-c3cnc(C4(O)CCN(C(=O)CN)CC4)nc3)cc2n1Cc1ccccc1OC(F)F [Example 14.3] | 1000 to 10000
CC(C)[C@H](N)C(=O)OCc1ccc(OC(F)F)c(Cn2c3cc(-c4cnc(N5CCN6C(=O)OC[C@@H]6C5)nc4)ccc3c(=O)n2C)c1 [Example 14.4] | 1000 to 10000
Cc1ccc(OC(F)F)c(Cn2c3cc(-c4cnc(N5CCN[C@H](C)C5)nc4)ccc3c(=O)n2C)c1 [Example 14.5, (R)-1-(2-(difluoromethoxy)-5-methylbenzyl)-2-methyl-6-(2-(3-methylpiperazin-1-yl)pyrimidin-5-yl)-1H-indazol-3(2H)-one] | 1000 to 10000
Cn1c(=O)c2ccc(-c3cnc(N4CCOCC4)nc3)nc2n1Cc1ccccc1OC(F)F [Example 15, 1-(2-(Difluoromethoxy)benzyl)-2-methyl-6-(2-morpholinopyrimidin-5-yl)-1H-pyrazolo[3,4-b]pyridin-3(2H)-one] | 1000 to 10000
Cn1c(=O)c2ccc(-c3cnc(C(C)(C)O)nc3)nc2n1Cc1ccccc1OC(F)F [Example 16, 1-(2-(Difluoromethoxy)benzyl)-6-(2-(2-hydroxypropan-2-yl)pyrimidin-5-yl)-2-methyl-1H-pyrazolo[3,4-b]pyridin-3(2H)-one] | 1000 to 10000

The remaining lines, values ahead:

IC50 [nM] | Compound
< 1000 | C[C@@H]1CN(c2ncc(-c3ccc4c(=O)n(C)n(Cc5ccccc5OC(F)F)c4c3)cn2)CCN1C(=O)CO [Example 10.6, (R)-1-(2-(difluoromethoxy)benzyl)-6-(2-(4-(2-hydroxyacetyl)-3-methylpiperazin-1-yl)pyrimidin-5-yl)-2-methyl-1H-indazol-3(2H)-one]
< 1000 | C[C@@H]1C[C@H](O)CCN1c1ncc(-c2ccc3c(=O)n(C)n(Cc4ccccc4OC(F)F)c3c2)cn1 [Example 10.9]
< 1000 | Cc1nc(N2CCN(C(=O)CO)C[C@H]2C)ncc1-c1ccc2c(=O)n(C)n(Cc3ccccc3OC(F)F)c2c1 [Example 10.10]
< 1000 | Cn1c(=O)c2ccc(-c3ccnc(OC4CCOCC4)c3)cc2n1Cc1ccccc1OC(F)F [Example 10.11]
< 1000 | C[C@@H]1CN(C(=O)CO)CCN1c1ncc(-c2ccc3c(=O)n(C)n(Cc4ccccc4OC(F)F)c3c2)cn1 [Example 10.14]
< 1000 | CC(=O)N1CCN(c2ncc(-c3ccc4c(=O)n(C)n(Cc5ccccc5OC(F)F)c4c3)cn2)[C@H](C)C1 [Example 10.16]
< 1000 | C[C@H]1CN(C(=O)CO)CCN1c1ncc(-c2ccc3c(=O)n(C)n(Cc4ccccc4OC(F)F)c3c2)cn1 [Example 10.17]
< 1000 | Cc1cc2c(=O)n(C)n(Cc3ccccc3OC(F)F)c2cc1-c1cnc(N2CCOCC2)nc1 [Example 13.1]
< 1000 | Cc1ccc(OC(F)F)c(Cn2c3cc(-c4cnc(N5CCN(C(=O)[C@H](C)N)[C@@H](C)C5)nc4)ccc3c(=O)n2C)c1 [Example 14.6]
< 1000 | Cc1ccc(OC(F)F)c(Cn2c3cc(-c4cnc(N5CCN(C(=O)CN)[C@@H](C)C5)nc4)ccc3c(=O)n2C)c1 [Example 14.7]
< 1000 | C[C@@H]1CN(c2ncc(-c3ccc4c(=O)n(C)n(Cc5ccccc5OC(F)F)c4c3)cn2)CCN1C(=O)C(O)CN (some centres unmarked) [Example 14.8]
< 1000 | Cc1ccc(OC(F)F)c(Cn2c3cc(-c4cnc(N5CCN(C(=O)C(O)CN)[C@H](C)C5)nc4)ccc3c(=O)n2C)c1 (some centres unmarked) [Example 14.9]
< 1000 | Cc1ccc(OC(F)F)c(Cn2c3cc(-c4cnc(N5CCN(C(=O)CN)[C@H](C)C5)nc4)ccc3c(=O)n2C)c1 [Example 14.10]
< 1000 | Cc1ccc(OC(F)F)c(Cn2c3cc(-c4cnc(N5CCN(C(=O)[C@H](C)N)[C@H](C)C5)nc4)ccc3c(=O)n2C)c1 [Example 14.11]
< 1000 | CC(C)[C@H](N)C(=O)OCC(=O)N1CCN(c2ncc(-c3ccc4c(=O)n(C)n(Cc5ccccc5OC(F)F)c4c3)cn2)C[C@H]1C [Example 14.12]
< 1000 | CC(C)[C@@H](N)C(=O)OCC(=O)N1CCN(c2ncc(-c3ccc4c(=O)n(C)n(Cc5ccccc5OC(F)F)c4c3)cn2)C[C@H]1C [Example 14.13]
< 1000 | Cc1ccc(OC(F)F)c(Cn2c3cc(-c4cnc(N5CCN(C(=O)COC(=O)[C@@H](N)C(C)C)[C@H](C)C5)nc4)ccc3c(=O)n2C)c1 [Example 14.14]
< 1000 | C[C@H](N)C(=O)OCc1ccc(OC(F)F)c(Cn2c3cc(-c4cnc(N5CCN6C(=O)NC[C@@H]6C5)nc4)ccc3c(=O)n2C)c1 [Example 14.15]
< 1000 | CC(C)[C@H](N)C(=O)OCc1ccc(OC(F)F)c(Cn2c3cc(-c4cnc(N5CCN6C(=O)NC[C@@H]6C5)nc4)ccc3c(=O)n2C)c1 [Example 14.16]
< 1000 | Cc1ccc(OC(F)F)c(Cn2c3cc(-c4cnc(N5CCN6C(=O)NC[C@H]6C5)nc4)ccc3c(=O)n2C)c1 [Example 15.1]
